Assays:
[1] = test system: normal human dermal fibroblasts (NHDF); experiment: MTT assay, viability of NHDF cell culture (ISO 10993 part 5); assay type: cell-based; details: NHDF cell cultures, 24 h incubation; for IC50: Homo sapiens, MTT, mean (± SD), n = 5
Description: The viability of the normal human dermal fibroblasts (NHDF) cell culture after 24 h incubation with the tested compounds 5a-c-7a-c was assessed by carrying out the MTT assay. This test was performed according to ISO 10993 part 5, Appendix C. For all tested compounds, the IC50 values were calculated using four-parameter logistics. Normal human dermal fibroblasts (NHDF) were purchased from the American Type Culture Collection (ATCC) for cytotoxicity evaluation of the tested compounds. The cells were grown in Dulbecco's Modified Eagle Medium DMEM with […] glucose without phenol red supplemented with 10% FBS and 2 mM L-glutamine, and 25 μg/mL gentamicin. The NHDF cells were cultured under standard conditions (5% CO2, 37 °C, and 95% humidity) with evaluation morphology and confluence at least twice a week. For the assay, the cells were used only in a logarithmic growth phase, and the TrypLE solution was used for 2 min at 37 °C to detach cells. Then, the TrypLE solution was inactivated by adding a culture medium, and the suspension of cells was collected into a tube and centrifuged for 5 min at 1000 rpm. Then, the supernatant was removed, fresh medium was added, and the pellet was resuspended and calculated using the […] chamber. The suspension of cells was prepared to allow seeding 10,000 cells/well density and incubated for 24 h to regenerate in CO2-incubator. The tested compounds were dissolved in DMSO to a final concentration of 10 mM and stored at -20 °C. Before use, the compound solution was kept at room temperature until thawing, and then, samples with 3 different concentrations of compounds were prepared (100 μM, 50 μM, and 10 μM) for each compound. The tested concentrations of compounds were prepared in a culture medium. […] The evaluation of the cytotoxicity of the newly synthesized compounds was carried out in accordance with the ISO 10,993 part V standard by performing the MTT test. After seeding at a density of 10,000 cells per well and adhering overnight, the NHDF cells were treated with the test compounds for 24 h in a CO2 incubator. The supernatant was then removed, the cells were washed with PBS, a 1mg/mL solution of MTT dissolved in MEM was added, and the cultures were re-incubated for 2 h in a CO2 incubator. The medium was then removed, and for a further 30 min, the formazan crystals were dissolved in 100 μL of isopropanol. The absorbance was measured with a Varioskan Go microplate reader at a wavelength of 570 nm. […] For enzyme assays, the IC50 was calculated according to the procedure provided by the kit manufacturer. The significance was set at p < 0.05. Based on the tests performed, the test power was calculated to be greater than 80%.

[2] = test system: alpha-1-acid glycoprotein (AAG); experiment: Binding site study with AAG, replacement of marker quinaldine red (fluorescence); design: species or system human
Source text: Orosomucoid has seven binding sites in its molecule, but there is only one site where the drugs bind. A very good fluorescent marker for binding site study in the case of AAG is quinalidine red (QR).
We used a 500 nm excitation wavelength. In these conditions, the maximum emission spectra were located near 600 nm. We increased the molar ratio of the reactants from 1:1:0 to 1:1:10. The intensity of fluorescence decreases during the addition of successive portions of the analyzed compounds.
Binding site studies were conducted using fluorescence measurements. Spectra were recorded on Cary Eclipse 500 spectrophotometer (Agilent, Santa Clara, CA, USA) at room temperature with a 10 mm path length. HSA and AAG solutions were prepared in phosphate buffer, giving concentrations equal to 1 × 10^−6 M. The concentrations of dansylated-L-glycine (DanG), dansylated-L-phenylalanine (DanF), and quinaldine red (QR) were 1 × 10^−3 M. The densylated amino acids and QR solutions were prepared in ethanol. For the HSA-dansylated amino acids studies, the excitation wavelength was equal to 350 nm, while for the AAG-QR system, it was 500 nm, respectively. Then, 3 mL of protein was mixed with 3 µL of marker solution, giving a molar ratio of 1 to 1. Next, successive portions of the analyzed compounds were added to the mixtures prepared in this way, obtaining the appropriate protein-to-compound molar ratios, amounting to 1:0, 1:0.5, 1:1, 1:2, 1:3, 1:4, 1:5, and 1:10 for the HSA-densylated amino acids systems, and 1:0, 1:0.5, 1:1, 1:2, 1:3, 1:4, 1:6, 1:8, and 1:10 for the AAG-QR systems.

[3] = test system: alpha-1-acid glycoprotein (AAG); experiment: Fluorescence quenching titration of AAG
Description: Aex is the absorbance at excitation wavelengths, and Aem is the absorbance at emission wavelengths.
The correlation between the stability constant of complexes Kb and standard thermodynamic parameters enthalpy change (ΔH°), and entropy change (ΔS°) was determined by the van’t Hoff Equation (4):(4) logKb=−∆H^°/RT+∆S^°/R where R is the universal gas constant; the free energy change (ΔG°) can be calculated by following Equation (5):(5) ∆G^°=∆H^°−T∆S^°=−RTlnKb
The fluorescence study was performed on a Cary Eclipse 500 spectrophotometer (Agilent, Santa Clara, CA, USA). The spectra were recorded in a cuvette with 10 mm path length at an emission range of 300–500 nm, and the excitation wavelength was 280 nm.

COX-2 = molecular target: T1, COX-2 (Homo sapiens, UniProt P35354); experiment: COX-2 inhibition, Cayman's COX Colorimetric Inhibitor Screening Assay Kit; details: for Selectivity Index (SI): COX-2 IC50/COX-1 IC50
T1 sequence (P35354 18-604): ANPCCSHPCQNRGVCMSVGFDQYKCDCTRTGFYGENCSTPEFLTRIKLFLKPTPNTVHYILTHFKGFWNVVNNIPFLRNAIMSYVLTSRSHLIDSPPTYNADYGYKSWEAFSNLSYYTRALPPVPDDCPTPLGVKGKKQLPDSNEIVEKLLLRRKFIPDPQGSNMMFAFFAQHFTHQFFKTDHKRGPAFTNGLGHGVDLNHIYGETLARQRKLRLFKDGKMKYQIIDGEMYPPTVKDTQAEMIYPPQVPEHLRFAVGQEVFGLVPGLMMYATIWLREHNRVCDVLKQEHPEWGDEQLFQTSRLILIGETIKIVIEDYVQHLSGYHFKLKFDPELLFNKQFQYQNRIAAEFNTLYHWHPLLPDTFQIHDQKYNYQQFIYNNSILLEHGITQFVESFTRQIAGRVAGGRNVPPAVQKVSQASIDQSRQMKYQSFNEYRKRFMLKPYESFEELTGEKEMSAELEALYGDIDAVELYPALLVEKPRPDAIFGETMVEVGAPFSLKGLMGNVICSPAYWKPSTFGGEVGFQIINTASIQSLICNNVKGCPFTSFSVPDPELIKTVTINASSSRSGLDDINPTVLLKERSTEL

[4] = AAG:marker:compound molar ratio 1:1:0.5
[5] = AAG:marker:compound molar ratio 1:1:1
[6] = AAG:marker:compound molar ratio 1:1:2
[7] = AAG:marker:compound molar ratio 1:1:3
[8] = AAG:marker:compound molar ratio 1:1:4
[9] = AAG:marker:compound molar ratio 1:1:6
[10] = AAG:marker:compound molar ratio 1:1:8
[11] = AAG:marker:compound molar ratio 1:1:10

CCCCn1c(C)c2c(OCC(=O)N/N=C/c3ccccc3)nn(C)c(=O)c2c1C [Compound 5a, N-[(Z/E)-benzylideneamino]-2-(6-butyl-3,5,7-trimethyl-4-oxo-pyrrolo[3,4-d]pyridazin-1-yl)oxy-acetamide]
IC50 [1]: 85.6 ± 2.5 µM
Cell Morphology in Culture [1]: Cells with an elongated shape characteristic of fibroblasts, the granularities were observed in 3–5 fields of view from 10 analyzed fields.
percentage of the replacement of QR [2, 4]: 23.7%
percentage of the replacement of QR [2, 5]: 35.5%
percentage of the replacement of QR [2, 6]: 48.1%
percentage of the replacement of QR [2, 7]: 55.0%
percentage of the replacement of QR [2, 8]: 58.8%
percentage of the replacement of QR [2, 9]: 65.6%
percentage of the replacement of QR [2, 10]: 69.5%
percentage of the replacement of QR [2, 11]: 72.5%
Ksv ([3]; T 297 K): 9.04 ± 0.16 ·10^4 dm^3·mol^−1
kq ([3]; T 297 K): 9.04 ·10^12 dm^3·mol^−1·s^−1
logKb ([3]; T 297 K): 1.82 ± 0.12
Ksv ([3]; T 303 K): 3.15 ± 0.41 ·10^4 dm^3·mol^−1
kq ([3]; T 303 K): 3.15 ·10^12 dm^3·mol^−1·s^−1
logKb ([3]; T 303 K): 1.73 ± 0.27
Ksv ([3]; T 308 K): 1.11 ± 0.16 ·10^4 dm^3·mol^−1
kq ([3]; T 308 K): 1.11 ·10^12 dm^3·mol^−1·s^−1
logKb ([3]; T 308 K): 1.62 ± 0.26
IC50 (COX-2): 17.2 ± 1.4 µM
Selectivity Index (SI) (COX-2): 0.21

Cc1c2c(OCC(=O)N/N=C/c3ccccc3)nn(C)c(=O)c2c(C)n1-c1ccccc1 [Compound 5b, N-[(Z/E)-benzylideneamino]-2-(3,5,7-trimethyl-4-oxo-6-phenyl-pyrrolo[3,4-d]pyridazin-1-yl)oxy-acetamide]
IC50 [1]: 486 ± 6.5 µM
Cell Morphology in Culture [1]: Normal morphology of fibroblasts-elongated cells, single granular cells in 1 of 10 assessed fields of view.
percentage of the replacement of QR [2, 4]: 17.2%
percentage of the replacement of QR [2, 5]: 29.1%
percentage of the replacement of QR [2, 6]: 40.3%
percentage of the replacement of QR [2, 7]: 47.0%
percentage of the replacement of QR [2, 8]: 52.2%
percentage of the replacement of QR [2, 9]: 55.2%
percentage of the replacement of QR [2, 10]: 56.7%
percentage of the replacement of QR [2, 11]: 58.2%
Ksv ([3]; T 297 K): 10.41 ± 1.08 ·10^4 dm^3·mol^−1
kq ([3]; T 297 K): 10.41 ·10^12 dm^3·mol^−1·s^−1
logKb ([3]; T 297 K): 2.71 ± 0.21
Ksv ([3]; T 303 K): 11.41 ± 1.42 ·10^4 dm^3·mol^−1
kq ([3]; T 303 K): 11.41 ·10^12 dm^3·mol^−1·s^−1
logKb ([3]; T 303 K): 2.53 ± 0.15
Ksv ([3]; T 308 K): 8.39 ± 1.24 ·10^4 dm^3·mol^−1
kq ([3]; T 308 K): 8.39 ·10^12 dm^3·mol^−1·s^−1
logKb ([3]; T 308 K): 2.35 ± 0.12
IC50 (COX-2): 22.7 ± 1.2 µM
Selectivity Index (SI) (COX-2): 0.25

Cc1c2c(OCC(=O)N/N=C/c3ccccc3)nn(C)c(=O)c2c(C)n1-c1cccc(Cl)c1 [Compound 5c, N-[(Z/E)-benzylideneamino]-2-[6-(3-chlorophenyl)-3,5,7-trimethyl-4-oxo-pyrrolo[3,4-d]pyridazin-1-yl]oxyacetamide]
IC50 [1]: 95.2 ± 1.5 µM
Cell Morphology in Culture [1]: Cells with an elongated shape characteristic of fibroblasts, the granularities were observed in 3–5 fields of view from 10 analyzed fields.
percentage of the replacement of QR [2, 4]: 31.7%
percentage of the replacement of QR [2, 5]: 39.7%
percentage of the replacement of QR [2, 6]: 52.4%
percentage of the replacement of QR [2, 7]: 54.0%
percentage of the replacement of QR [2, 8]: 54.8%
percentage of the replacement of QR [2, 9]: 55.6%
percentage of the replacement of QR [2, 10]: 55.6%
percentage of the replacement of QR [2, 11]: 55.6%
Ksv ([3]; T 297 K): 15.87± 2.41 ·10^4 dm^3·mol^−1
kq ([3]; T 297 K): 15.87 ·10^12 dm^3·mol^−1·s^−1
logKb ([3]; T 297 K): 2.64 ± 0.16
Ksv ([3]; T 303 K): 14.60 ± 2.05 ·10^4 dm^3·mol^−1
kq ([3]; T 303 K): 14.60 ·10^12 dm^3·mol^−1·s^−1
logKb ([3]; T 303 K): 2.47 ± 0.17
Ksv ([3]; T 308 K): 9.99 ± 1.60 ·10^4 dm^3·mol^−1
kq ([3]; T 308 K): 9.99 ·10^12 dm^3·mol^−1·s^−1
logKb ([3]; T 308 K): 2.31 ± 0.20
IC50 (COX-2): 23.6 ± 2.5 µM
Selectivity Index (SI) (COX-2): 0.23

From article PMC10383271
